Where “and” joins values, the source holds several entries; their conditions need not be identical. Identical values can stand only once. Like-named read-outs stand apart in the source and are kept apart here.

The target in data set [1] is T1, α2AR (Homo sapiens, UniProt P08913).
T1 sequence (P08913 1-465): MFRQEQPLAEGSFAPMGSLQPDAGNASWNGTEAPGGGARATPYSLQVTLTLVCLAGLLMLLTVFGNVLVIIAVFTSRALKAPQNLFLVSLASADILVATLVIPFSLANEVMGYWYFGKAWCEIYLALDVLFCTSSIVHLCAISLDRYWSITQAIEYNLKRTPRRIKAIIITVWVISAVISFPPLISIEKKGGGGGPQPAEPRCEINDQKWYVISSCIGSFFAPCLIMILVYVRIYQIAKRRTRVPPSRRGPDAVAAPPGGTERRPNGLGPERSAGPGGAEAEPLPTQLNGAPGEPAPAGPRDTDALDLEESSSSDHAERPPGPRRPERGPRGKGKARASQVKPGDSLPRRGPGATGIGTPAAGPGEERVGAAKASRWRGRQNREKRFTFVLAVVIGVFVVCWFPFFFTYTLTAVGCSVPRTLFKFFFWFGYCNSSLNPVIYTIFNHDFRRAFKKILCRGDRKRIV

The target of data set [2] is T2, rat α2AR (Rattus norvegicus, UniProt P22909).
T2 sequence (P22909 1-465): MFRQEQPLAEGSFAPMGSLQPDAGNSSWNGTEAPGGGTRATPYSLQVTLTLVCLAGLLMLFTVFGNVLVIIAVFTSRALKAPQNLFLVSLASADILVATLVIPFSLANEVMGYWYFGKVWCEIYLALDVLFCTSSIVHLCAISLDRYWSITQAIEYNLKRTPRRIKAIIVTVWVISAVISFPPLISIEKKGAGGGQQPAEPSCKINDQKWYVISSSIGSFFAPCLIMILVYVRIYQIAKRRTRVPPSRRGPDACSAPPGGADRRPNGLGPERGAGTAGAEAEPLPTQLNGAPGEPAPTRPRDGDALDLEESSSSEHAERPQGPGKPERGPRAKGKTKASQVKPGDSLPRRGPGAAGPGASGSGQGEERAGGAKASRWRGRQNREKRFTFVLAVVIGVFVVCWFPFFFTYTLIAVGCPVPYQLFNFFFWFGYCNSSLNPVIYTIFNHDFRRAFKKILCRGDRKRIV
The settings on record: agonist mode; CHO-K1 cells.

Data set [3] addresses T3, α1AR (Homo sapiens, UniProt P35348).
T3 sequence (P35348 1-466): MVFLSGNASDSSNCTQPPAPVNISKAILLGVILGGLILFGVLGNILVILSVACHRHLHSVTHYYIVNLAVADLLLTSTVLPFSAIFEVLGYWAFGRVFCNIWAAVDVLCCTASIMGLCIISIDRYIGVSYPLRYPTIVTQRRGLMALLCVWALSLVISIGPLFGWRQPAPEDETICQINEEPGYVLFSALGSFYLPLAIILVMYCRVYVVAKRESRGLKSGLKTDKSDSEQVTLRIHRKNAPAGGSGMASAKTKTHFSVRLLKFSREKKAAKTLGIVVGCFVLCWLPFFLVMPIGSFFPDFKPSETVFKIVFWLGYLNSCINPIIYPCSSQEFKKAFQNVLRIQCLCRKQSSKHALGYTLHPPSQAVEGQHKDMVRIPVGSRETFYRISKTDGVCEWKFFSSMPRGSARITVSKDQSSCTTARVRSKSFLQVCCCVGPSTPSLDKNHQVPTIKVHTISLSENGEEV

For data set [4] the following is noted: male mice, 165 mg/kg PO; cited from earlier work.

The Kb is the equilibrium dissociation constant of an antagonist, usually derived from a functional assay. By EC50 is commonly meant the concentration that produces a half-maximal response. With mitragynine, the “Effect on forskolin-stimulated cAMP, human α2AR” value in data set [1] (agonist mode, CHO-K1 cells) was “did not impact forskolin-stimulated cAMP accumulation”. Moreover, the Kb in data set [1] (read-out: Kb, antagonist, cAMP, human α2AR, antagonism of clonidine, Gaddum-Schild analysis of first plateau) was found to be 4.17 µM. Moreover, in data set [2], the “Effect on forskolin-stimulated cAMP, rat α2AR” value is on record as “did not decrease forskolin-stimulated cAMP accumulation”. For the same substance, the concentration giving a half-maximal response (EC50) in data set [3] (read-out: EC50, α11, α1AR-Gα11) is 3.16 µM; in data set [3] (read-out: EC50 at α1AR-Gα11 (abstract), partial agonist), roughly 3 µM. The “Emax as percent of clonidine's maximum response, α11” value in data set [3] (α1AR-Gα11) is given as 27%. Also, in data set [3] (α1AR-Gαq), the “EC50, αq” value is “inactive”. Further, the Peak brain concentration entry in data set [4] was “approximately 35 μg/g of wet brain tissue and ~88 μM”.
